From ChEMBL document CHEMBL3108755, “Dermacozines H-J isolated from a deep-sea strain of Dermacoccus abyssi from Mariana Trench sediments” (J Nat Prod, 2014) come the findings set out here.

The test system of this test is Radical scavenging activity. In words: Antioxidant activity assessed as DPPH radical scavenging activity. It counts as functional.
Usually IC50 stands for the concentration that inhibits the measured activity by half. For the molecule `O=C1O[C@H]([C@@H](O)CO)C(O)=C1O` [ASCORBIC ACID], the IC50 turned out to be 12.1 µM.
On to `CN1c2cccc(C(N)=O)c2Nc2c(C(=O)c3ccccc3)ccc(C(N)=O)c21`, for which the IC50 is 34.6 µM.
On to `CN1c2cc(C(=O)c3ccccc3)cc(C(=O)O)c2Nc2cccc(C(N)=O)c21`, for which the IC50 worked out at 8.4 µM.
`CN1c2cc(C=O)cc(C(=O)O)c2Nc2cccc(C(N)=O)c21`: the IC50 stood at 18.8 µM.
`CC(=O)NC(CSc1ccc(C(N)=O)c2c1Nc1c(C(N)=O)cc(C(=O)c3ccccc3)cc1N2C)C(=O)O` (stereo not given): the IC50 came to 19.6 µM.
